Laboratory results taken from patent publication US20100298141A1, “SUBSTITUTED PYRIDINE N-OXIDE HERBICIDES” (E. I. DU PONT DE NEMOURS AND COMPANY, priority 2007, published 2010).

Key:
barnyardgrass [1] = assay: Test A pre-/postemergence greenhouse test; assay type: in vivo, Echinochloa crus-galli; conditions: for Plant response rating, Barnyardgrass: 0 to 100 scale where 0 is no effect and 100 is complete control; for Barnyardgrass plant response rating: 0 to 100 scale
Summary of the method: (§1)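 Seeds sown in a loam soil–sand blend got a preemergence directed soil spray of compound in a non-phytotoxic solvent mixture containing surfactant. Postemergence sprays of the same formulation went at the same time onto plants 2–10 cm tall at the one- to two-leaf stage. Injury was scored visually against untreated controls after about ten days in the greenhouse.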

crabgrass [2] = assay: Test A pre-/postemergence greenhouse test; assay type: in vivo, Digitaria sanguinalis; conditions: for Plant response rating, Crabgrass, Large: 0 to 100 scale where 0 is no effect and 100 is complete control; for Crabgrass, Large plant response rating: 0 to 100 scale
Summary of the method: as §1

velvetleaf = assay: Test A pre-/postemergence greenhouse test; assay type: in vivo, Abutilon theophrasti; conditions: for Plant response rating, Velvetleaf: 0 to 100 scale where 0 is no effect and 100 is complete control; for Velvetleaf plant response rating: 0 to 100 scale
Summary of the method: as §1

corn [3] = assay: Test A pre-/postemergence greenhouse test; assay type: in vivo, Zea mays; conditions: for Plant response rating, Corn: 0 to 100 scale where 0 is no effect and 100 is complete control; for Corn plant response rating: 0 to 100 scale
Summary of the method: as §1

green foxtail = assay: Test C pre-/postemergence test; assay type: in vivo, Setaria viridis; conditions: Postemergence; for Plant response rating, Foxtail, Green: scale 0 to 100, 0 no effect, 100 complete control
Summary of the method: (§2)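 Test chemicals were formulated with surfactant in a non-phytotoxic solvent and sprayed both on freshly planted seeds (preemergence) and on 1- to 4-leaf plants of 2–18 cm (postemergence). Flooded-paddy pots received compound directly into 3 cm of standing water, maintained for the test.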

Italian ryegrass = assay: Test C pre-/postemergence test; assay type: in vivo, Lolium multiflorum; conditions: Postemergence; for Plant response rating, Ryegrass, Italian: scale 0 to 100, 0 no effect, 100 complete control
Summary of the method: as §2

bermudagrass = assay: Test C pre-/postemergence test; assay type: in vivo, Cynodon dactylon; conditions: Postemergence; for Plant response rating, Bermudagrass: scale 0 to 100, 0 no effect, 100 complete control
Summary of the method: as §2

corn [4] = assay: Test C pre-/postemergence test; assay type: in vivo, Zea mays; conditions: Postemergence; for Plant response rating, Corn: scale 0 to 100, 0 no effect, 100 complete control
Summary of the method: as §2

crabgrass [5] = assay: Test C pre-/postemergence test; assay type: in vivo, Digitaria sanguinalis; conditions: Postemergence; for Plant response rating, Crabgrass, Large: scale 0 to 100, 0 no effect, 100 complete control
Summary of the method: as §2

Goosegrass = assay: Test C pre-/postemergence test; assay type: in vivo, Eleusin indica; conditions: Postemergence; for Plant response rating, Goosegrass: scale 0 to 100, 0 no effect, 100 complete control
Summary of the method: as §2

johnsongrass = assay: Test C pre-/postemergence test; assay type: in vivo, Sorghum halepense; conditions: Postemergence; for Plant response rating, Johnsongrass: scale 0 to 100, 0 no effect, 100 complete control
Summary of the method: as §2

yellow nutsedge = assay: Test C pre-/postemergence test; assay type: in vivo, Cyperus esculentus; conditions: Postemergence; for Plant response rating, Nutsedge, Yellow: scale 0 to 100, 0 no effect, 100 complete control
Summary of the method: as §2

pigweed = assay: Test C pre-/postemergence test; assay type: in vivo, Amaranthus retroflexus; conditions: Postemergence; for Plant response rating, Pigweed: scale 0 to 100, 0 no effect, 100 complete control
Summary of the method: as §2

soybean = assay: Test C pre-/postemergence test; assay type: in vivo, Glycine max; conditions: Postemergence; for Plant response rating, Soybean: scale 0 to 100, 0 no effect, 100 complete control
Summary of the method: as §2

umbrella sedge = assay: Test C flooded paddy test; assay type: in vivo, Cyperus difformis; conditions: Flood
Summary of the method: (§3)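 Flooded 3 cm over soil; compound into paddy water; depth kept constant. Greenhouse 13–15 d.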

duck salad = assay: Test C flooded paddy test; assay type: in vivo, Heteranthera limosa; conditions: Flood
Summary of the method: as §3

barnyardgrass [6] = assay: Test C flooded paddy test; assay type: in vivo, Echinochloa crus-galli; conditions: Flood
Summary of the method: as §3

[7] = Postemergence, 500 g ai/ha, 0 is no effect, 100 is complete control
[8] = Preemergence, 125 g ai/ha, 0 no effect, 100 complete control
[9] = 62 g ai/ha, scale 0 to 100 (0 no effect, 100 complete control)
[10] = 250 g ai/ha, scale 0 to 100, 0 no effect, 100 complete control, 13 to 15 days

## Cn1nc(C(F)(F)F)c(C[S+]([O-])c2cccc[n+]2[O-])c1OCC(F)(F)C(F)(F)F (stereo not shown) [Compound 78]
Barnyardgrass [1]; Postemergence, 125 g ai/ha
  Plant response rating, Barnyardgrass: 80
Barnyardgrass [1]; [7]
  Barnyardgrass plant response rating: 80
Barnyardgrass [1]; [8]
  Barnyardgrass plant response rating: 70
Barnyardgrass [1]; Preemergence, 500 g ai/ha
  Plant response rating, Barnyardgrass: 100
Crabgrass [2]; Postemergence, 125 g ai/ha
  Plant response rating, Crabgrass, Large: 70
Crabgrass [2]; [7]
  Crabgrass, Large plant response rating: 80
Crabgrass [2]; [8]
  Crabgrass, Large plant response rating: 30
Crabgrass [2]; Preemergence, 500 g ai/ha
  Plant response rating, Crabgrass, Large: 100
velvetleaf; Postemergence, 125 g ai/ha
  Plant response rating, Velvetleaf: 30
velvetleaf; [7]
  Velvetleaf plant response rating: 70
velvetleaf; [8]
  Velvetleaf plant response rating: 0
velvetleaf; Preemergence, 500 g ai/ha
  Plant response rating, Velvetleaf: 90
Corn [3]; Postemergence, 125 g ai/ha
  Plant response rating, Corn: 20
Corn [3]; [7]
  Corn plant response rating: 40
Corn [3]; [8]
  Corn plant response rating: 30
Corn [3]; Preemergence, 500 g ai/ha
  Plant response rating, Corn: 90
Green foxtail; 31 g ai/ha
  Plant response rating (0 to 100), Foxtail, Green: 0
Green foxtail; 62 g ai/ha
  Plant response rating, Foxtail, Green: 0
Green foxtail; 125 g ai/ha
  Plant response rating, Foxtail, Green: 45
Green foxtail; 250 g ai/ha
  Plant response rating, Foxtail, Green: 80
Italian ryegrass; 31 g ai/ha
  Plant response rating (0 to 100), Ryegrass, Italian: 0
Italian ryegrass; 62 g ai/ha
  Plant response rating (0 to 100), Ryegrass, Italian: 0
Italian ryegrass; 125 g ai/ha
  Plant response rating, Ryegrass, Italian: 30
Italian ryegrass; 250 g ai/ha
  Plant response rating, Ryegrass, Italian: 30
bermudagrass; 31 g ai/ha
  Plant response rating (0 to 100), Bermudagrass: 0
bermudagrass; 62 g ai/ha
  Plant response rating, Bermudagrass: 0
bermudagrass; 125 g ai/ha
  Plant response rating, Bermudagrass: 0
bermudagrass; 250 g ai/ha
  Plant response rating, Bermudagrass: 0
Corn [4]; 31 g ai/ha
  Plant response rating (0 to 100), Corn: 0
Corn [4]; 62 g ai/ha
  Plant response rating, Corn: 0
Corn [4]; 125 g ai/ha
  Plant response rating, Corn: 0
Corn [4]; 250 g ai/ha
  Plant response rating, Corn: 20
Crabgrass [5]; 31 g ai/ha
  Plant response rating (0 to 100), Crabgrass, Large: 0
Crabgrass [5]; 62 g ai/ha
  Plant response rating, Crabgrass, Large: 0
Crabgrass [5]; 125 g ai/ha
  Plant response rating, Crabgrass, Large: 0
Crabgrass [5]; 250 g ai/ha
  Plant response rating, Crabgrass, Large: 20
Goosegrass; 31 g ai/ha
  Plant response rating (0 to 100), Goosegrass: 0
Goosegrass; 62 g ai/ha
  Plant response rating, Goosegrass: 0
Goosegrass; 125 g ai/ha
  Plant response rating, Goosegrass: 10
Goosegrass; 250 g ai/ha
  Plant response rating, Goosegrass: 60
johnsongrass; 31 g ai/ha
  Plant response rating (0 to 100), Johnsongrass: 0
johnsongrass; 62 g ai/ha
  Plant response rating, Johnsongrass: 0
johnsongrass; 125 g ai/ha
  Plant response rating, Johnsongrass: 0
johnsongrass; 250 g ai/ha
  Plant response rating, Johnsongrass: 45
Yellow nutsedge; 31 g ai/ha
  Plant response rating (0 to 100), Nutsedge, Yellow: 0
Yellow nutsedge; 62 g ai/ha
  Plant response rating, Nutsedge, Yellow: 0
Yellow nutsedge; 125 g ai/ha
  Plant response rating, Nutsedge, Yellow: 0
Yellow nutsedge; 250 g ai/ha
  Plant response rating, Nutsedge, Yellow: 0
pigweed; 31 g ai/ha
  Plant response rating (0 to 100), Pigweed: 0
pigweed; 62 g ai/ha
  Plant response rating (0 to 100), Pigweed: 0
pigweed; 125 g ai/ha
  Plant response rating, Pigweed: 30
pigweed; 250 g ai/ha
  Plant response rating, Pigweed: 35
soybean; 62 g ai/ha
  Plant response rating (0 to 100), Soybean: 20
soybean; 125 g ai/ha
  Plant response rating, Soybean: 60
soybean; 250 g ai/ha
  Plant response rating, Soybean: 65
Umbrella sedge; [9]
  Plant response rating, Sedge, Umbrella: 75
Umbrella sedge; [10]
  Plant response rating, Sedge, Umbrella: 100
Duck salad; [9]
  Plant response rating, Ducksalad: 30
Duck salad; [10]
  Plant response rating, Ducksalad: 70
Barnyardgrass [6]; [9]
  Plant response rating, Barnyardgrass: 0
Barnyardgrass [6]; [10]
  Plant response rating, Barnyardgrass: 50
